The values that follow come from patent US7067653B2, “Porphyrin Based neuton capture agents for cancer therapy” (The Regents of the University of California, priority 2000, dated 2006).

One data set has as its system U-373 MG cells. Briefly: Dark toxicity assay in human glioblastoma U-373 MG cells. The settings on record: exposure for 24 hours. Type of data set: cell-based. How it is done:
(§1) In vitro studies using rat 9L gliosarcoma cells, mouse B16 melanoma cells and human U-373MG glioblastoma cells have been performed.
(§2) Human glioblastoma U373 MG and mouse melanoma B16 cells were obtained from ATCC. The rat gliosarcoma line was kindly provided by the UCSF Brain Tumor Research Group. All cells were maintained in log phase monolayer cultures with RPMI 1640 supplemented with 10% fetal bovine and 2 mM glutamine.
(§3) Cells were seeded in 96-well culture plates, allowed to settle and attach for 24–48 hours, and then triplicate wells were exposed to two fold serial dilutions of test compounds at concentrations up to 250 μM. Compounds 4, 6, 10, and the Zn(II) complex of 10 in crystalline form were carefully weighed and dissolved in 100% DMSO to prepare stock solutions; subsequent dilutions were done directly into the culture medium just prior to administration to cells. After short term (2 hours) or long term (24–48 hours) exposure, cells were washed and wells refilled with fresh culture medium. For dark toxicity trials cells were allowed to proliferate for an additional 48–72 hours. For phototoxicity trials, washed cells were irradiated for 10 minutes with broad spectrum (600–700 nm) red light and then returned to an incubator for 48–72 hours.

Another data set has as its system 9L cells. The experiment in a line: Dark toxicity assay in rat 9L gliosarcoma cells. Type of data set: cell-based. The settings on record: exposure for 24 hours. As to the method: as §1, §2, §3
In a further data set the test system is tumor. As to conditions: drugs currently in BNCT clinical trials; cited from earlier work.
The test system of the next data set is Rat 9L tumor cells. Briefly: Intracellular localization by confocal fluorescence microscopy, 9L cells. It is filed as cell-based. As to conditions: 2 μM, 6 or 24 hours. As to the method:
(§4) Confocal fluorescence microscopy was used to examine the intracellular localization of nido-carboranylporphyrin 4 in live cells. Rat 9L tumor cells and human normal keratinocyte line HaCaT were used in these studies. HaCaT cells were included in these particular experiments because they adhere and spread nicely on glass cover slips, thus facilitating the imaging process. Cells exposed to 2 μM concentration of porphyrin 4 for either 6 or 24 hours were examined at a magnification of 200× for intracellular fluorescence using excitation/emission wavelengths optimized for this type of compound. […] In both cases, 100% of the cells were labeled and the cells exposed to drug for 24 hours were slightly brighter than those exposed for 6 hours. […] No fluorescent signal was detectable in the plasma membranes of isolated individual cells nor in the intercellular junctions of confluent cells.

In data set [1] the test system is human normal keratinocyte line HaCaT. The experiment in a line: Intracellular localization by confocal fluorescence microscopy, HaCaT cells. The settings on record: 2 μM, 6 or 24 hours. It is filed as cell-based. As to the method: as §4
The test system of data set [2] is 9L, U-373 MG and B16 cells. The experiment in a line: Phototoxicity assay, broad spectrum (600–700 nm) red light. Type of data set: cell-based. The settings on record: irradiation with broad spectrum light 10 minutes. How it is done: as §2, §3
As observed for the dark toxicity experiments, the corresponding Zn(II) complex […] was about 20-fold less phototoxic. […] As with dark toxicity, B16 cells were more resistant that the other two cell types.

One may read the IC50 as the concentration needed to halve the response being measured. Read a high IC50 as weaker potency.

Turning to “meso-tetra[3-(1-methyl-nido-carboranyl)methylphenyl]porphyrin tetrapotassium salt [Compound 10]”, the IC50 in the data set with U-373 MG cells and with 9L cells was approximately 150 µM throughout.
For the compound “disodium mercapto-closo-dodecaborate [BSH]”, the “tumor selectivity compared with the carboranylporphyrins (tumor to normal brain ratio)” value in the data set on tumor is on record as “lower selectivities”.
In the case of `N[C@@H](Cc1ccc(B(O)O)cc1)C(=O)O` [BPA, L-4-dihydroxy-borylphenylalanine], the “tumor selectivity compared with the carboranylporphyrins (tumor to normal brain ratio)” value in the data set on tumor is given as “lower selectivities”.
On to “meso-tetra[4-(1-methyl-nido-carboranyl)methylphenyl]porphyrin tetrapotassium salt [Compound 4]”, for which the IC50 was approximately 150 µM in the data set on U-373 MG cells, 50 µM in data set [2] (2 hours exposure), 1.5 µM in data set [2] (24 hours exposure) and approximately 150 µM in the data set on 9L cells. The cells labeled (with Rat 9L tumor cells (9L cells); in data set [1] (HaCaT cells)) was 100% each time. In addition, the “intracellular localization (fluorescence)” value (with Rat 9L tumor cells (live 9L cells); in data set [1] (live HaCaT cells)) was “predominantly perinuclear” each time.
